Source: ChEMBL document CHEMBL4396926, “Design, Synthesis and Anticancer Evaluation of New Substituted Thiophene-Quinoline Derivatives” (Bioorg Med Chem, 2019)

Experiments:
HepG2 [1] = test: Cytotoxicity against human HepG2 cells assessed as cell growth inhibition at 3.125 to 100 uM incubated for 72 hrs and measured after 2 hrs by microplate reader based WST-1 assay relative to control; format: functional
HeLa [2] = test: Cytotoxicity against human HeLa cells assessed as cell growth inhibition at 3.125 to 100 uM incubated for 72 hrs and measured after 2 hrs by microplate reader based WST-1 assay relative to control; format: functional
HCT-116 [3] = test: Cytotoxicity against human HCT116 cells assessed as cell growth inhibition at 3.125 to 100 uM incubated for 72 hrs and measured after 2 hrs by microplate reader based WST-1 assay relative to control; format: functional
MCF7 [4] = test: Cytotoxicity against human MCF7 cells assessed as cell growth inhibition at 3.125 to 100 uM incubated for 72 hrs and measured after 2 hrs by microplate reader based WST-1 assay relative to control; format: functional
HepG2 [5] = test: Cytotoxicity against human HepG2 cells assessed as increase in growth inhibition by measuring decrease in cell viability incubated for 72 hrs and measured after 2 hrs by microplate reader based WST-1 assay; format: functional
HeLa [6] = test: Cytotoxicity against human HeLa cells assessed as increase in growth inhibition by measuring decrease in cell viability incubated for 72 hrs and measured after 2 hrs by microplate reader based WST-1 assay; format: functional
HCT-116 [7] = test: Cytotoxicity against human HCT116 cells assessed as increase in growth inhibition by measuring decrease in cell viability incubated for 72 hrs and measured after 2 hrs by microplate reader based WST-1 assay; format: functional
MCF7 [8] = test: Cytotoxicity against human MCF7 cells assessed as increase in growth inhibition by measuring decrease in cell viability incubated for 72 hrs and measured after 2 hrs by microplate reader based WST-1 assay; format: functional
[9] = target: Epidermal growth factor receptor (Homo sapiens, UniProt P00533); test: Inhibition of EGFR-TK in human MCF7 cells overexpressing EGFR incubated for 18 to 24 hrs by kinase assay; format: cell-based
Chain of Epidermal growth factor receptor (P00533 whole entry): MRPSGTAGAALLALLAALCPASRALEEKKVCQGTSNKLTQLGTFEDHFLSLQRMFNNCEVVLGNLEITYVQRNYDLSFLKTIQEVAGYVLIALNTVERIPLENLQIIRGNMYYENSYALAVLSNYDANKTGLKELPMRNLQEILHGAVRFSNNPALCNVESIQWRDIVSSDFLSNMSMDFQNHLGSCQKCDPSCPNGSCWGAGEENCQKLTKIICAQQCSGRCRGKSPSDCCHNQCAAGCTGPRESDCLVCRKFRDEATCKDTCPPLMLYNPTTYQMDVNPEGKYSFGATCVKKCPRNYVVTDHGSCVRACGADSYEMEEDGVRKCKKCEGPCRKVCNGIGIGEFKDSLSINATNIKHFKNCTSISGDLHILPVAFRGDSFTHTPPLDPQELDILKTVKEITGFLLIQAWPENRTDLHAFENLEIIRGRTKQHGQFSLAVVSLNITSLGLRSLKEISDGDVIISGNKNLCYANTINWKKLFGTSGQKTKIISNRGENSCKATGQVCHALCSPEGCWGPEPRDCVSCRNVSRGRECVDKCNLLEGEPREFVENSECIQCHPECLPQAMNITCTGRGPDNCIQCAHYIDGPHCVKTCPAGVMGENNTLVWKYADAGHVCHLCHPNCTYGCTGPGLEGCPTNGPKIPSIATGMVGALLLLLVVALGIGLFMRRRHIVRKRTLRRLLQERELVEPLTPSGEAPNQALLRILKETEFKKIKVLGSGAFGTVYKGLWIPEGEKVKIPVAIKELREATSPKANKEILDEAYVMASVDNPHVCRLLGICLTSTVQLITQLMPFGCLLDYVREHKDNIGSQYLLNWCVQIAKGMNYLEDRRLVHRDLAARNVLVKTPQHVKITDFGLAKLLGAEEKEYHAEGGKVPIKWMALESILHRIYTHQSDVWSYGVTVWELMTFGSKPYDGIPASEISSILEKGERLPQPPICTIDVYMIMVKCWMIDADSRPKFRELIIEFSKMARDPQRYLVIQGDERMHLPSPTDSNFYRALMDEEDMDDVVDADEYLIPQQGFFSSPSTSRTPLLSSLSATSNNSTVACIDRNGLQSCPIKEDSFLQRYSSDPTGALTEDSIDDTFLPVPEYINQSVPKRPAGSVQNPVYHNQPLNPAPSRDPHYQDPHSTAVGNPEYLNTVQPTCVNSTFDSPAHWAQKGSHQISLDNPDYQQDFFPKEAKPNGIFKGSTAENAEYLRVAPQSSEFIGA

MCF7 [10] = test: Induction of apoptosis in human MCF7 cells assessed as increase in caspase 3 activation by measuring fold increase in caspase 3 level by fluorescence based solid phase sandwich ELISA; format: functional
MCF7 [11] = test: Induction of apoptosis in human MCF7 cells assessed as increase in caspase 9 activation by measuring fold increase in caspase 9 level by fluorescence based solid phase sandwich ELISA; format: functional
MCF7 [12] = test: Cell cycle arrest in human MCF7 cells assessed as accumulation at G0/G1 phase at IC50 after 24 hrs by propidium iodide staining based FACS analysis (reference value: 67.39%); format: functional
MCF7 [13] = test: Cell cycle arrest in human MCF7 cells assessed as accumulation at S phase at IC50 after 24 hrs by propidium iodide staining based FACS analysis (reference value: 27.13%); format: functional
MCF7 [14] = test: Cell cycle arrest in human MCF7 cells assessed as accumulation at G2/M phase at IC50 after 24 hrs by propidium iodide staining based FACS analysis (reference value: 4.82%); format: functional
MCF7 [15] = test: Cell cycle arrest in human MCF7 cells assessed as accumulation at pre G1/apoptotic phase at IC50 after 24 hrs by propidium iodide staining based FACS analysis (reference value: 0.66%); format: functional
MCF7 [16] = test: Induction of apoptosis in human MCF7 cells after 24 hrs by Annexin V-FITC/propidium iodide staining-based FACS analysis; format: functional, cell-based
MCF7 [17] = test: Induction of apoptosis in human MCF7 cells assessed as viable cells after 24 hrs by Annexin V-FITC/propidium iodide staining-based FACS analysis (reference value: 99.34%); format: functional
MCF7 [18] = test: Induction of apoptosis in human MCF7 cells assessed as early apoptotic cells after 24 hrs by Annexin V-FITC/propidium iodide staining-based FACS analysis (reference value: 0.29%); format: functional
MCF7 [19] = test: Induction of apoptosis in human MCF7 cells assessed as late apoptotic cells after 24 hrs by Annexin V-FITC/propidium iodide staining-based FACS analysis (reference value: 0.22%); format: functional
MCF7 [20] = test: Induction of apoptosis in human MCF7 cells assessed as necrotic cells after 24 hrs by Annexin V-FITC/propidium iodide staining-based FACS analysis (reference value: 0.15%); format: functional
DNA topoisomerase II [21] = target: T1, DNA topoisomerase II (Homo sapiens, UniProt P11388+Q02880); test: Inhibition of DNA topoisomerase 2 in human MCF7 cells at 25 uM incubated for 18 to 24 hrs by kinase assay relative to control; format: cell-based
DNA topoisomerase II [22] = target: T1, DNA topoisomerase II; test: Inhibition of DNA topoisomerase 2 in human MCF7 cells at 1 uM incubated for 18 to 24 hrs by kinase assay relative to control; format: cell-based
DNA topoisomerase II [23] = target: T1, DNA topoisomerase II; test: Inhibition of DNA topoisomerase 2 in human MCF7 cells at 0.2 uM incubated for 18 to 24 hrs by kinase assay relative to control; format: cell-based
DNA topoisomerase II [24] = target: T1, DNA topoisomerase II; test: Inhibition of DNA topoisomerase 2 in human MCF7 cells incubated for 18 to 24 hrs by kinase assay; format: cell-based
DNA topoisomerase II [25] = target: T1, DNA topoisomerase II; test: Inhibition of DNA topoisomerase 2 in human MCF7 cells at 5 uM incubated for 18 to 24 hrs by kinase assay relative to control; format: cell-based
HeLa [26] = test: Induction of apoptosis in human HeLa cells assessed as increase in caspase 3 activation by measuring fold increase in caspase 3 level by fluorescence based solid phase sandwich ELISA; format: functional
HeLa [27] = test: Induction of apoptosis in human HeLa cells assessed as increase in caspase 9 activation by measuring fold increase in caspase 9 level by fluorescence based solid phase sandwich ELISA; format: functional
[28] = Homo sapiens, HeLa, read-out: IC50
[29] = Homo sapiens, MCF7, read-out: IC50
[30] = Homo sapiens, HepG2, read-out: IC50
[31] = Homo sapiens, HCT-116, read-out: IC50

## Clc1nc2ccccc2cc1C(OCc1ccc(Br)cc1)c1cccs1 (stereo not drawn)
HepG2 [1]
  growth inhibition (GI): <10%
HeLa [2]
  growth inhibition (GI): 30.89%
HCT-116 [3]
  growth inhibition (GI): 21.98%
MCF7 [4]
  growth inhibition (GI): <10%

## COc1cc(-c2cc(COC(c3cccs3)c3cc4ccccc4nc3Cl)on2)cc(OC)c1OC (stereo not drawn)
HepG2 [1]
  growth inhibition (GI): 14.57%
HeLa [2]
  growth inhibition (GI): <10%
HCT-116 [3]
  growth inhibition (GI): <10%
MCF7 [4]
  growth inhibition (GI): <10%

## Fc1ccc(COC(c2cccs2)c2cc3ccccc3nc2Cl)cc1 (stereo not drawn)
HepG2 [1]
  growth inhibition (GI): 30.53%
HeLa [2]
  growth inhibition (GI): 66.21%
HCT-116 [3]
  growth inhibition (GI): <10%
MCF7 [4]
  growth inhibition (GI): 64.97%
HepG2 [5]; hepg2
  IC50: Not Active
HeLa [6]; [28]
  IC50: 73.9 µM
HCT-116 [7]; hct-116
  IC50: Not Active
MCF7 [8]; [29]
  IC50: 38.4 µM
[9]
  IC50: 2.75 µM
MCF7 [10]
  fold change (FC): 30.8
MCF7 [11]
  fold change (FC): 40.6
MCF7 [12]
  Activity: 47.2%
MCF7 [13]
  Activity: 17.19%
MCF7 [14]
  Activity: 19.33%
MCF7 [15]
  Activity: 16.28%
MCF7 [16]
  Activity: Dose-dependent effect
MCF7 [17]
  Activity: 83.96%
MCF7 [18]
  Activity: 7.03%
MCF7 [19]
  Activity: 8.42%
MCF7 [20]
  Activity: 0.83%
DNA topoisomerase II [21]
  inhibition: 93.7%
DNA topoisomerase II [22]
  inhibition: 70.8%
DNA topoisomerase II [23]
  inhibition: 43.3%
DNA topoisomerase II [24]
  IC50: 0.23 µM
DNA topoisomerase II [25]
  inhibition: 88.5%

## Cc1ccc(-n2cc(COC(c3cccs3)c3cc4ccccc4nc3Cl)nn2)cc1 (stereo not drawn)
HepG2 [1]
  growth inhibition (GI): 18.78%
HeLa [2]
  growth inhibition (GI): <10%
HCT-116 [3]
  growth inhibition (GI): 13.03%
MCF7 [4]
  growth inhibition (GI): <10%

## COc1ccc(-c2cc(COC(c3cccs3)c3cc4ccccc4nc3Cl)on2)cc1 (stereo not drawn)
HepG2 [1]
  growth inhibition (GI): 17.93%
HeLa [2]
  growth inhibition (GI): <10%
HCT-116 [3]
  growth inhibition (GI): 20.31%
MCF7 [4]
  growth inhibition (GI): <10%

## COc1ccc(-n2cc(COC(c3cccs3)c3cc4ccccc4nc3Cl)nn2)cc1 (stereo not drawn)
HepG2 [1]
  growth inhibition (GI): <10%
HeLa [2]
  growth inhibition (GI): <10%
HCT-116 [3]
  growth inhibition (GI): 32.52%
MCF7 [4]
  growth inhibition (GI): <10%

## C#CCOC(c1cccs1)c1cc2ccccc2nc1Cl (stereo not drawn)
HepG2 [5]; [30]
  IC50: > 100 µM
HeLa [6]; [28]
  IC50: 34.7 µM
HCT-116 [7]; [31]
  IC50: > 100 µM
MCF7 [8]; [29]
  IC50: > 100 µM

## CNC(=O)c1cc(Oc2ccc(NC(=O)Nc3ccc(Cl)c(C(F)(F)F)c3)cc2)ccn1 [SORAFENIB]
HeLa [26]
  fold change (FC): 35.5
MCF7 [10]
  fold change (FC): 34.2

## Clc1ccc(-n2cc(COC(c3cccs3)c3cc4ccccc4nc3Cl)nn2)cc1 (stereo not drawn)
HepG2 [1]
  growth inhibition (GI): 8.39%
HeLa [2]
  growth inhibition (GI): <10%
HCT-116 [3]
  growth inhibition (GI): 23.13%
MCF7 [4]
  growth inhibition (GI): <10%

## Oc1ccc(-c2cc(COC(c3cccs3)c3cc4ccccc4nc3Cl)on2)cc1 (stereo not drawn)
HepG2 [1]
  growth inhibition (GI): 64.51%
HeLa [2]
  growth inhibition (GI): <10%
HCT-116 [3]
  growth inhibition (GI): 14.27%
MCF7 [4]
  growth inhibition (GI): <10%
HepG2 [5]; [30]
  IC50: 178 µM
HeLa [6]; hela
  IC50: Not Active
HCT-116 [7]; hct-116
  IC50: Not Active
MCF7 [8]; mcf7
  IC50: Not Active

## Clc1nc2ccccc2cc1C(OCc1ccccc1)c1cccs1 (stereo not drawn)
HepG2 [1]
  growth inhibition (GI): <10%
HeLa [2]
  growth inhibition (GI): <10%
HCT-116 [3]
  growth inhibition (GI): <10%
MCF7 [4]
  growth inhibition (GI): 45.63%
HepG2 [5]; hepg2
  IC50: Not Active
HeLa [6]; hela
  IC50: Not Active
HCT-116 [7]; hct-116
  IC50: Not Active
MCF7 [8]; [29]
  IC50: 108 µM

## FC(F)(F)c1ccc(-n2cc(COC(c3cccs3)c3cc4ccccc4nc3Cl)nn2)cc1 (stereo not drawn)
HepG2 [1]
  growth inhibition (GI): <10%
HeLa [2]
  growth inhibition (GI): <10%
HCT-116 [3]
  growth inhibition (GI): 35.86%
MCF7 [4]
  growth inhibition (GI): <10%

## Cc1cc(C)c(COC(c2cccs2)c2cc3ccccc3nc2Cl)c(C)c1 (stereo not drawn)
HepG2 [1]
  growth inhibition (GI): 24.76%
HeLa [2]
  growth inhibition (GI): 42.48%
HCT-116 [3]
  growth inhibition (GI): 26.37%
MCF7 [4]
  growth inhibition (GI): 21.49%

## FC(F)(F)c1cccc(COC(c2cccs2)c2cc3ccccc3nc2Cl)c1 (stereo not drawn)
HepG2 [1]
  growth inhibition (GI): <10%
HeLa [2]
  growth inhibition (GI): 42.42%
HCT-116 [3]
  growth inhibition (GI): 23.22%
MCF7 [4]
  growth inhibition (GI): 52.9%
HepG2 [5]; hepg2
  IC50: Not Active
HeLa [6]; hela
  IC50: Not Active
HCT-116 [7]; hct-116
  IC50: Not Active
MCF7 [8]; [29]
  IC50: 101 µM

## Cc1ccc(-c2cc(COC(c3cccs3)c3cc4ccccc4nc3Cl)on2)cc1 (stereo not drawn)
HepG2 [1]
  growth inhibition (GI): 31.77%
HeLa [2]
  growth inhibition (GI): <10%
HCT-116 [3]
  growth inhibition (GI): 43.91%
MCF7 [4]
  growth inhibition (GI): 22.03%
HepG2 [5]; hepg2
  IC50: Not Active
HeLa [6]; hela
  IC50: Not Active
HCT-116 [7]; [31]
  IC50: 115 µM
MCF7 [8]; mcf7
  IC50: Not Active

## O=c1[nH]cc(F)c(=O)[nH]1 [FLUOROURACIL]
HepG2 [5]; [30]
  IC50: > 100 µM
HeLa [6]; [28]
  IC50: 20.4 µM
HCT-116 [7]; [31]
  IC50: 63.9 µM
MCF7 [8]; [29]
  IC50: > 100 µM
HeLa [27]
  fold change (FC): 94.4
MCF7 [11]
  fold change (FC): 26 - 26.1

## O=[N+]([O-])c1ccc(-n2cc(COC(c3cccs3)c3cc4ccccc4nc3Cl)nn2)cc1 (stereo not drawn)
HepG2 [1]
  growth inhibition (GI): <10%
HeLa [2]
  growth inhibition (GI): <10%
HCT-116 [3]
  growth inhibition (GI): <10%
MCF7 [4]
  growth inhibition (GI): <10%

## Cc1cc(C)cc(-c2cc(COC(c3cccs3)c3cc4ccccc4nc3Cl)on2)c1 (stereo not drawn)
HepG2 [1]
  growth inhibition (GI): <10%
HeLa [2]
  growth inhibition (GI): <10%
HCT-116 [3]
  growth inhibition (GI): <10%
MCF7 [4]
  growth inhibition (GI): <10%

## COc1ccc(-c2cc(COC(c3cccs3)c3cc4ccccc4nc3Cl)on2)cc1OC (stereo not drawn)
HepG2 [1]
  growth inhibition (GI): <10%
HeLa [2]
  growth inhibition (GI): <10%
HCT-116 [3]
  growth inhibition (GI): <10%
MCF7 [4]
  growth inhibition (GI): <10%
